# Results reported in PMC11111955, “Safety and efficacy evaluation of halicin as an effective drug for inhibiting intestinal infections” (Frontiers in Pharmacology, 2024).
# “Also recorded” adds a separate entry of the source. Read-outs that look alike come from different tables or passages of the source.
# What was measured:
# [1] = test system: K. pneumoniae (ATCC 4352); assay: Minimum inhibitory concentration (MIC); type: cell-based, Klebsiella pneumoniae
# Experimental: (§1) The test strains were inoculated on the corresponding solid medium and incubated overnight at 37°C. A single colony was picked from the medium and inoculated into Luria Broth (LB), and then incubated overnight at 37°C with shaking at 220 rpm. The bacterial suspension was diluted to 0.5 McFarland turbidity with Mueller Hinton broth (MHB), and then dilute 100 times for later use. Halicin was added to the 96-well plate, and diluted it to concentrations of 128, 64, 32, 16, 8, 4, 2, 1, 0.5, 0.25, 0.125, and 0 μg/mL by gradient. The 96-well plate was incubated at 37°C for 16 h, followed by observing and recording the results. The MIC was determined as the concentration at which there was no visible colony growth was observed.
# [2] = test system: E. coli (ATCC 25922); assay: Minimum inhibitory concentration (MIC); type: cell-based, Escherichia coli
# Experimental: as §1
# [3] = test system: S. aureus (ATCC 29213); assay: Minimum inhibitory concentration (MIC); type: cell-based, Staphylococcus aureus
# Experimental: as §1
# [4] = test system: clinical isolates of C. perfringens strains; type: cell-based, Clostridium perfringens
# [5] = test system: Clostridium perfringens Type A; type: in vivo, BALB/c mice; conditions: for survival of infected mice: 1 h after C. perfringens challenge
# [6] = test system: MRSA (BNCC 337371); assay: Minimum inhibitory concentration (MIC); type: cell-based, Staphylococcus aureus
# [7] = test system: mouse bone marrow cells; conditions: for Chromosome aberration (%) / Number of cells with chromosome aberration: ICR mice, oral; for Number of cells with chromosome aberration: of 5 × 100 cells at metaphase
# [8] = test system: zebrafish embryos; assay: Zebrafish embryonic malformation study; type: in vivo; conditions: up to 4 μM; 24, 48 and 72 h after fertilization
# Experimental: For embryonic malformation studies, groups of 20 zebrafish embryos each were treated with halicin. The concentrations of the drug were set at 4, 2, 1, and 0.5 μM, in accordance with established protocols for zebrafish embryo acute toxicity test. Observations were conducted at 24, 48, and 72 h after fertilization using a microscope. The embryonic assessment focused on six specific teratogenic endpoints: pericardial edema, yolk sac edema, cardiac malformations, morphological body shape deformities, tail deformities, and craniofacial anomalies, as well as otolith abnormalities. To minimize the impact of random variability, these experiments were performed in triplicate ([OECD, 1998]).
# [9] = test system: Mouse spermatozoa; conditions: for Abnormal ratio (%) / Number of sperm abnormality: male ICR mice, oral; for Number of sperm abnormality: of 5 × 1,000 sperms observed
# [10] = test system: TA100; assay: Ames test; type: cell-based, Salmonella typhimurium
# Experimental: (§2) The experiments were performed in triplicate.
# [11] = test system: TA97a; assay: Ames test; type: cell-based, Salmonella typhimurium
# Experimental: as §2
# [12] = test system: TA98; assay: Ames test; type: cell-based, Salmonella typhimurium
# Experimental: as §2
# [13] = test system: bone marrow polychromatic erythrocytes; assay: Micronucleus experiment of mammalian bone marrow cells
# [14] = test system: WP2uvApKM101; assay: Ames test; type: cell-based, Escherichia coli
# Experimental: as §2
# [15] = Female mice, High-does (1009.1) mg/kg
# [16] = Female mice, Low-does (252.3) mg/kg
# [17] = Female mice, Medium-does (504.6) mg/kg
# [18] = Male mice, High-does (1009.1) mg/kg
# [19] = Male mice, Low-does (252.3) mg/kg
# [20] = Male mice, Medium-does (504.6) mg/kg
smiles,measurement,setting,value
Nc1nnc(Sc2ncc([N+](=O)[O-])s2)s1 [halicin],MIC,[1],8 µg/mL
same,MIC,[2],8 µg/mL
same,MIC,[3],8 µg/mL
same,MIC,"[4]; clinical isolate S049, Clostridium perfringens Cp001",4 µg/mL
same,MIC,"[4]; clinical isolate S050, Clostridium perfringens Cp002",4 µg/mL
same,MIC,"[4]; clinical isolate S051, Clostridium perfringens Cp003",4 µg/mL
same,MIC,"[4]; clinical isolate S052, Clostridium perfringens Cp004",8 µg/mL
same,MIC,"[4]; clinical isolate S053, Clostridium perfringens Cp005",8 µg/mL
same,MIC,"[4]; clinical isolate S054, Clostridium perfringens Cp006",8 µg/mL
same,MIC,"[4]; clinical isolate S055, Clostridium perfringens Cp007",16 µg/mL
same,MIC,"[4]; clinical isolate S056, Clostridium perfringens Cp008",0.25 µg/mL
same,MIC,"[4]; clinical isolate S057, Clostridium perfringens Cp009",0.25 µg/mL
same,MIC,"[4]; clinical isolate S058, Clostridium perfringens Cp010",0.25 µg/mL
same,survival of infected mice,[5]; 5 mg/kg halicin,more than 80%
same,survival of infected mice,[5]; 10 mg/kg halicin,no deaths occurred; also recorded: All mice in the 10 mg/kg halicin group survived
same,therapeutic effect in infected mice,[5]; dose of 5 mg/kg,good therapeutic effects
same,efficacy compared with 10 mg/kg metronidazole,[5]; intestinal anaerobic bacteria infection in mice,much more effective
same,MIC,[6],8 µg/mL
same,teratogenic effect on bone marrow cells,"[7]; 252.3 mg/kg to 1009.1 mg/kg, p > 0.05 vs negative control",no significant teratogenic effect
same,Chromosome aberration (%),[7]; High-does (1009.1) mg/kg,1.4 ± 0.55%
same,Number of cells with chromosome aberration,[7]; High-does (1009.1) mg/kg,7
same,Chromosome aberration (%),[7]; Low-does (252.3) mg/kg,1.4 ± 1.14%
same,Number of cells with chromosome aberration,[7]; Low-does (252.3) mg/kg,7
same,Chromosome aberration (%),[7]; Medium-does (504.6) mg/kg,1.6 ± 0.89%
same,Number of cells with chromosome aberration,[7]; Medium-does (504.6) mg/kg,8
same,teratogenic effects on the embryos,[8],no significant teratogenicity; also recorded: no any significant teratogenic effects
same,proportions of abnormal sperm compared with the negative control group,"[9]; 1009.1, 504.6 and 252.3 mg/kg, p > 0.05",not significantly different
same,Abnormal sperms counted ratio (%): Amorphous,[9]; High-dose (1009.1) mg/kg,23.6 ± 12.44%
same,Abnormal sperms counted ratio (%): Banana shape,[9]; High-dose (1009.1) mg/kg,42.52 ± 12.57%
same,Abnormal sperms counted ratio (%): Kinks tail,[9]; High-dose (1009.1) mg/kg,3.05 ± 2.79%
same,Abnormal sperms counted ratio (%): Large round head,[9]; High-dose (1009.1) mg/kg,9.07 ± 4.02%
same,Abnormal sperms counted ratio (%): No hook,[9]; High-dose (1009.1) mg/kg,15.6 ± 5.5%
same,Abnormal sperms counted ratio (%): Two head,[9]; High-dose (1009.1) mg/kg,3.05 ± 2.79%
same,Abnormal sperms counted ratio (%): Two tail,[9]; High-dose (1009.1) mg/kg,3.11 ± 2.84%
same,Abnormal sperms counted ratio (%): Amorphous,[9]; Low-dose (252.3) mg/kg,39.81 ± 3%
same,Abnormal sperms counted ratio (%): Banana shape,[9]; Low-dose (252.3) mg/kg,35.98 ± 3.94%
same,Abnormal sperms counted ratio (%): Kinks tail,[9]; Low-dose (252.3) mg/kg,1.18 ± 2.63%
same,Abnormal sperms counted ratio (%): Large round head,[9]; Low-dose (252.3) mg/kg,3.92 ± 3.58%
same,Abnormal sperms counted ratio (%): No hook,[9]; Low-dose (252.3) mg/kg,16.61 ± 3.11%
same,Abnormal sperms counted ratio (%): Two head,[9]; Low-dose (252.3) mg/kg,1.33 ± 2.98%
same,Abnormal sperms counted ratio (%): Two tail,[9]; Low-dose (252.3) mg/kg,1.18 ± 2.63%
same,Abnormal sperms counted ratio (%): Amorphous,[9]; Medium-dose (504.6) mg/kg,29.69 ± 2.67%
same,Abnormal sperms counted ratio (%): Banana shape,[9]; Medium-dose (504.6) mg/kg,35.81 ± 4.52%
same,Abnormal sperms counted ratio (%): Kinks tail,[9]; Medium-dose (504.6) mg/kg,2.44 ± 3.37%
same,Abnormal sperms counted ratio (%): Large round head,[9]; Medium-dose (504.6) mg/kg,11.96 ± 0.96%
same,Abnormal sperms counted ratio (%): No hook,[9]; Medium-dose (504.6) mg/kg,16.7 ± 2.71%
same,Abnormal sperms counted ratio (%): Two head,[9]; Medium-dose (504.6) mg/kg,2.22 ± 3.04%
same,Abnormal sperms counted ratio (%): Two tail,[9]; Medium-dose (504.6) mg/kg,1.18 ± 2.63%
same,Abnormal ratio (%),[9]; High-dose (1009.1) mg/kg,2.12 ± 0.38%
same,Number of sperm abnormality,[9]; High-dose (1009.1) mg/kg,110
same,Abnormal ratio (%),[9]; Low-dose (252.3) mg/kg,1.56 ± 0.09%
same,Number of sperm abnormality,[9]; Low-dose (252.3) mg/kg,78
same,Abnormal ratio (%),[9]; Medium-dose (504.6) mg/kg,1.68 ± 0.13%
same,Number of sperm abnormality,[9]; Medium-dose (504.6) mg/kg,84
same,Ames test bacterial counts,"[10]; TA100, +S9, 5.6 μg/plate",171 ± 11.3
same,Ames test bacterial counts,"[10]; TA100, +S9, 11.2 μg/plate",152 ± 12.7
same,Ames test bacterial counts,"[10]; TA100, +S9, 22.5 μg/plate",0 ± 0
same,Ames test bacterial counts,"[10]; TA100, +S9, 45 μg/plate",0 ± 0
same,Ames test bacterial counts,"[10]; TA100, -S9, 5.6 μg/plate",121 ± 9.9
same,Ames test bacterial counts,"[10]; TA100, -S9, 11.2 μg/plate",0 ± 0
same,Ames test bacterial counts,"[10]; TA100, -S9, 22.5 μg/plate",0 ± 0
same,Ames test bacterial counts,"[10]; TA100, -S9, 45 μg/plate",0 ± 0
same,Ames test bacterial counts,"[11]; +S9, 5.6 μg/plate",145 ± 5.7
same,Ames test bacterial counts,"[11]; +S9, 11.2 μg/plate",151 ± 11.3
same,Ames test bacterial counts,"[11]; +S9, 22.5 μg/plate",31 ± 8.5
same,Ames test bacterial counts,"[11]; +S9, 45 μg/plate",0 ± 0
same,Ames test bacterial counts,"[11]; -S9, 5.6 μg/plate",82 ± 14.1
same,Ames test bacterial counts,"[11]; -S9, 11.2 μg/plate",115 ± 8.5
same,Ames test bacterial counts,"[11]; -S9, 22.5 μg/plate",0 ± 0
same,Ames test bacterial counts,"[11]; -S9, 45 μg/plate",0 ± 0
same,Ames test bacterial counts,"[12]; TA98, +S9, 5.6 μg/plate",30 ± 12.7
same,Ames test bacterial counts,"[12]; TA98, +S9, 11.2 μg/plate",43 ± 8.5
same,Ames test bacterial counts,"[12]; TA98, +S9, 22.5 μg/plate",53 ± 7.1
same,Ames test bacterial counts,"[12]; TA98, +S9, 45 μg/plate",0 ± 0
same,Ames test bacterial counts,"[12]; TA98, -S9, 5.6 μg/plate",27 ± 2.8
same,Ames test bacterial counts,"[12]; TA98, -S9, 11.2 μg/plate",61 ± 14.1
same,Ames test bacterial counts,"[12]; TA98, -S9, 22.5 μg/plate",55 ± 5.7
same,Ames test bacterial counts,"[12]; TA98, -S9, 45 μg/plate",0 ± 0
same,PCE micronucleus (‰),[13]; [15],2.2 ± 0.8 ‰
same,PCE/RBC,[13]; [15],0.72 ± 0.08
same,PCE micronucleus (‰),[13]; [16],1.2 ± 0.4 ‰
same,PCE/RBC,[13]; [16],1.09 ± 0.06
same,PCE micronucleus (‰),[13]; [17],0.8 ± 0.4 ‰
same,PCE/RBC,[13]; [17],1.06 ± 0.07
same,PCE micronucleus (‰),[13]; [18],0.8 ± 0.8 ‰
same,PCE/RBC,[13]; [18],0.76 ± 0.03
same,PCE micronucleus (‰),[13]; [19],0.6 ± 0.5 ‰
same,PCE/RBC,[13]; [19],1.07 ± 0.09
same,PCE micronucleus (‰),[13]; [20],1 ± 0.7 ‰
same,PCE/RBC,[13]; [20],1.08 ± 0.11
same,micronucleus ratio compared with the negative control group,"[13]; high-dose (1009.1 mg/kg), p < 0.01",significant difference
same,micronucleus ratio compared with the negative control group,"[13]; medium (504.6 mg/kg) and low-dose (252.3 mg/kg), p > 0.05",no significant difference
same,Ames test bacterial counts,"[14]; WP2uvApKM101, +S9, 5.6 μg/plate",183 ± 15.6
same,Ames test bacterial counts,"[14]; WP2uvApKM101, +S9, 11.2 μg/plate",168 ± 19.8
same,Ames test bacterial counts,"[14]; WP2uvApKM101, +S9, 22.5 μg/plate",12 ± 5.7
same,Ames test bacterial counts,"[14]; WP2uvApKM101, +S9, 45 μg/plate",0 ± 0
same,Ames test bacterial counts,"[14]; WP2uvApKM101, -S9, 5.6 μg/plate",169 ± 15.6
same,Ames test bacterial counts,"[14]; WP2uvApKM101, -S9, 11.2 μg/plate",135 ± 22.6
same,Ames test bacterial counts,"[14]; WP2uvApKM101, -S9, 22.5 μg/plate",75 ± 8.5
same,Ames test bacterial counts,"[14]; WP2uvApKM101, -S9, 45 μg/plate",0 ± 0
